For 23 compounds, IC90 results are on record in patent US20230203043A1, “NOVEL IMIDAZOPYRAZINE DERIVATIVES” (Hoffmann-La Roche Inc., priority 2020, published 2023).

Structures can show the parent of a compound that is named as a salt. Where two headings read alike, the source gives them in different places.

The test system of the assay is Acinetobacter baumannii ATCC17961. Kind of assay: Antimicrobial susceptibility testing: 90% growth inhibitory concentration (IC90) determination in Iso-Sensitest broth, OD600 growth. The class given is cell-based. An outline of the steps: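 Growth monitored at 600 nm every 20 min for 16 h at 35±2 °C, inoculum ~5×10^(5) CFU/ml in Iso-Sensitest medium. Compounds in 10-point twofold series, e.g. 50 to 0.097 μM final; 90% inhibitory concentration taken from log-phase growth.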

The mark [1] stands for this setting: Acinetobacter baumannii, ATCC17961, 16 h, read-out: A. baumannii ATCC 17961 IC90 (uM), strain ATCC 17961, OD600 growth over 16 h.
Setting [2] is: Acinetobacter baumannii, ATCC17961, 16 h, strain ATCC 17961, OD600 growth over 16 h, read-out: A. baumannii ATCC 17961 IC90.
[3] abbreviates: strain ATCC 17961, OD600 growth over 16 h, read-out: A. baumannii ATCC 17961 IC90.

The term IC90 denotes the concentration at which the effect reaches the 90% level. Regarding `O=C(NCCNC(=O)[C@@H]1C[C@@H](O)CN1)c1ccc(Nc2nccn3c(-c4c[nH]nc4C(F)(F)F)cnc23)cc1Cl` [Example 433, (2S,4R)-N-[2-[[2-chloro-4-[[3-[3-(trifluoromethyl)-1H-pyrazol-4-yl]imidazo[1,2-a]pyrazin-8-yl]amino]benzoyl]amino]ethyl]-4-hydroxypyrrolidine-2-carboxamide formate], the IC90 under setting [1] came to 2.66 µM.
As to `N#CCCn1cc(-c2cnc3c(Nc4ccc(C(=O)N5CCN(C(=O)CCN)CC5)c(Cl)c4)nccn23)c(C(F)(F)F)n1` [Example 256, 3-[4-[8-[4-[4-(3-aminopropanoyl)piperazine-1-carbonyl]-3-chloroanilino]imidazo[1,2-a]pyrazin-3-yl]-3-(trifluoromethyl)pyrazol-1-yl]propanenitrile formate], the IC90 under setting [1] was determined as 0.358 µM.
For `CCc1cc(Nc2nccn3c(-c4cn(C)nc4C(F)(F)F)cnc23)ccc1C(=O)NCCCNC(=O)[C@@H]1C[C@@H](O)CN1` [Example 437, (2S,4R)-N-[3-[[2-ethyl-4-[[3-[1-methyl-3-(trifluoromethyl)pyrazol-4-yl]imidazo[1,2-a]pyrazin-8-yl]amino]benzoyl]amino]propyl]-4-hydroxypyrrolidine-2-carboxamide], under setting [2], the concentration for an effect of 90% (IC90) was 1.02 µM.
`C#CCn1cc(-c2cnc3c(Nc4ccc(C(=O)NCCOC[C@H](C)N)c(CC)c4)nccn23)c(C(F)(F)F)n1` [Example 147, N-[2-[(2S)-2-aminopropoxy]ethyl]-2-ethyl-4-[[3-[1-prop-2-ynyl-3-(trifluoromethyl)pyrazol-4-yl]imidazo[1,2-a]pyrazin-8-yl]amino]benzamide]: the IC90 under setting [2] is 0.049 µM.
Take `Cc1cc(Nc2nccn3c(-c4cn(CC#N)nc4C(F)(F)F)cnc23)cc(F)c1C(=O)N[C@H](C)CNC(=O)[C@@H]1C[C@@H](O)CN1` [Example 769, (2S,4R)-N-((R)-2-(4-(3-(1-(cyanomethyl)-3-(trifluoromethyl)-1H-pyrazol-4-yl)imidazo[1,2-a]pyrazin-8-yl)amino)-2-fluoro-6-methylbenzamido)propyl)-4-hydroxypyrrolidine-2-carboxamide formate]: the IC90 under setting [2] was determined as 0.928 µM.
`CCc1cc(Nc2nccn3c(-c4cn(CCC(C)(C)Cl)nc4C(F)(F)F)cnc23)ccc1C(=O)NCCOCCN` [Example 655, N-(2-(2-aminoethoxy)ethyl)-4-((3-(1-(3-chloro-3-methylbutyl)-3-(trifluoromethyl)-1H-pyrazol-4-yl)imidazo[1,2-a]pyrazin-8-yl)amino)-2-ethylbenzamide]: under setting [2], the IC90 is 0.266 µM.
As to `O=C(c1ccc(Nc2nccn3c(-c4c[nH]nc4C(F)(F)F)cnc23)cc1Cl)N1CCN(C(=O)[C@]2(O)CCCNC2)CC1` [Example 247, [2-chloro-4-[[3-[3-(trifluoromethyl)-1H-pyrazol-4-yl]imidazo[1,2-a]pyrazin-8-yl]amino]phenyl]-[4-[(3S)-3-hydroxypiperidine-3-carbonyl]piperazin-1-yl]methanone], the IC90 under setting [2] is 0.116 µM.
In the case of `NCCN1CCN(C(=O)c2ccc(Nc3nccn4c(-c5c[nH]nc5C(F)(F)F)cnc34)cc2Cl)CC1` [Example 571, (4-(2-aminoethyl)piperazin-1-yl)(2-chloro-4-((3-(3-(trifluoromethyl)-1H-pyrazol-4-yl)imidazo[1,2-a]pyrazin-8-yl)amino)phenyl) methanone formate], the 90% effect concentration (IC90) under setting [1] worked out at 0.192 µM.
As to `NCCCNC(=O)c1ccc(Nc2nccn3c(-c4c[nH]nc4C(F)(F)F)cnc23)cc1Cl` [Example 364, N-(3-aminopropyl)-2-chloro-4-[[3-[3-(trifluoromethyl)-1H-pyrazol-4-yl]imidazo[1,2-a]pyrazin-8-yl]amino]benzamide], the IC90 under setting [2] came to 1.13 µM.
In the case of `N#CCn1cc(-c2cnc3c(Nc4ccc(C(=O)N5CCN(CC(=O)N6CCNCC6)CC5)c(Cl)c4)nccn23)c(C(F)(F)F)n1` [Example 607, 2-(4-(8-((3-chloro-4-(4-(2-oxo-2-(piperazin-1-yl)ethyl)piperazine-1-carbonyl)phenyl)amino)imidazo[1,2-a]pyrazin-3-yl)-3-(trifluoromethyl)-1H-pyrazol-1-yl)acetonitrile formate], the IC90 under setting [1] amounted to 0.878 µM.
Consider `N#CCn1cc(-c2cnc3c(Nc4ccc(C(=O)NCCNCC(=O)NCCCN)c(Cl)c4)nccn23)c(C(F)(F)F)n1` [Example 819, N-(2-((2-((3-aminopropyl)amino)-2-oxoethyl)amino)ethyl)-2-chloro-4-((3-(1-(cyanomethyl)-3-(trifluoromethyl)-1H-pyrazol-4-yl)imidazo[1,2-a]pyrazin-8-yl)amino) benzamide formate], for which the IC90 under setting [2] was 0.18 µM.
With `CCc1cc(Nc2nccn3c(-c4cn(CC(F)F)nc4C(F)(F)F)cnc23)ccc1C(=O)NCC(=O)N1CCCC(N)C1` (centres unmarked) [Example 544, N-[2-(3-amino-1-piperidyl)-2-oxo-ethyl]-4-[[3-[1-(2,2-difluoroethyl)-3-(trifluoromethyl)pyrazol-4-yl]imidazo[1,2-a]pyrazin-8-yl]amino]-2-ethyl-benzamide formate], under setting [1], the IC90 is 0.232 µM.
For the compound `Cc1cc(Nc2nccn3c(-c4cn(CC#N)nc4C(F)(F)F)cnc23)cc(F)c1C(=O)N1CCN(C(=O)[C@H]2C[C@@H](N)C2)CC1` [Example 699, 2-(4-(8-((4-(4-((1s,3s)-3-aminocyclobutane-1-carbonyl)piperazine-1-carbonyl)-3-fluoro-5-methylphenyl)amino)imidazo[1,2-a]pyrazin-3-yl)-3-(trifluoromethyl)-1H-pyrazol-1-yl) acetonitrile formate], the IC90 under setting [2] turned out to be 0.38 µM.
As to `C=CCn1cc(-c2cnc3c(Nc4cc(C)c(C(=O)NCCOCCN)c(F)c4)nccn23)c(C(F)(F)F)n1` [Example 51, N-[2-(2-aminoethoxy)ethyl]-2-fluoro-6-methyl-4-[[3-[1-prop-2-enyl-3-(trifluoromethyl)pyrazol-4-yl]imidazo[1,2-a]pyrazin-8-yl]amino] benzamide], under setting [3], the IC90 was 0.13 µM.
Turning to `NCCCC[C@H](N)C(=O)NCCCNC(=O)c1ccc(Nc2nccn3c(-c4c[nH]nc4C(F)(F)F)cnc23)cc1Cl` [Example 345, 2-chloro-N-[3-[[(2S)-2,6-diaminohexanoyl]amino]propyl]-4-[[3-[3-(trifluoromethyl)-1H-pyrazol-4-yl]imidazo[1,2-a]pyrazin-8-yl]amino]benzamide foramate], under setting [3], the IC90 is 1.22 µM.
As to `Cc1cc(Nc2nccn3c(-c4cn(CC(F)F)nc4C(F)(F)F)cnc23)cc(F)c1C(=O)N1CCN(C(=O)[C@H](C)N)CC1` [Example 664, (S)-2-amino-1-(4-(4-((3-(1-(2,2-difluoroethyl)-3-(trifluoromethyl)-1H-pyrazol-4-yl)imidazo [1,2-a]pyrazin-8-yl)amino)-2-fluoro-6-methylbenzoyl)piperazin-1-yl)propan-1-one], the concentration for an effect of 90% (IC90) under setting [2] worked out at 0.286 µM.
As to `Cc1cc(Nc2nccn3c(-c4c[nH]nc4C(F)(F)F)cnc23)ccc1C(=O)N1CCN(C(=O)N[C@H]2CNC[C@@H]2O)CC1` [Example 458, formic acid, N-[(3S,4S)-4-hydroxyppyrrolidin-3-yl]-4-[2-methyl-4-[[3-[3-(trifluoromethyl)-1H-pyrazol-4-yl]imidazo[1,2-a]pyrazin-8-yl]amino]benzoyl]piperazine-1-carboxamide], the IC90 under setting [3] was determined as 0.551 µM.
On to `CCc1cc(Nc2nccn3c(-c4cn(CC#N)nc4C(F)(F)F)cnc23)ccc1C(=O)NCCCNC(=O)[C@@H](C)N` [Example 626, (R)-N-(3-(2-aminopropanamido)propyl)-4-((3-(1-(cyanomethyl)-3-(trifluoromethyl)-1H-pyrazol-4-yl)imidazo[1,2-a]pyrazin-8-yl)amino)-2-ethylbenzamide formate], for which, under setting [1], the IC90 worked out at 0.233 µM.
As to `CCc1cc(Nc2nccn3c(-c4cn(CCC#N)nc4C(F)(F)F)cnc23)ccc1C(=O)NCCOCCN` [Example 33, N-[2-(2-aminoethoxy)ethyl]-4-[[3-[1-(2-cyanoethyl)-3-(trifluoromethyl)pyrazol-4-yl]imidazo[1,2-a]pyrazin-8-yl]amino]-2-ethylbenzamide formate], the IC90 under setting [1] is 0.269 µM.
As for `O=C(c1ccc(Nc2nccn3c(-c4cn(CC(F)F)nc4C(F)(F)F)cnc23)cc1Cl)N1CCN(C(=O)[C@H]2[C@@H]3CNC[C@@H]32)CC1` [Example 519, (4-((1R,5S,6r)-3-azabicyclo[3.1.0]hexane-6-carbonyl)piperazin-1-yl)(2-chloro-4-((3-(1-(2,2-difluoroethyl)-3-(trifluoromethyl)-1H-pyrazol-4-yl)imidazo[1,2-a]pyrazin-8-yl)amino)phenyl) methanone formate], under setting [2], the 90% effect concentration (IC90) stood at 0.147 µM.
Same read-out and setting: the result for `CCc1cc(Nc2nccn3c(-c4cn(CC(F)F)nc4C(F)(F)F)cnc23)ccc1C(=O)NCC(=O)NCC1CCNCC1` [Example 550, 4-[[3-[1-(2,2-difluoroethyl)-3-(trifluoromethyl)pyrazol-4-yl]imidazo[1,2-a]pyrazin-8-yl]amino]-2-ethyl-N-[2-oxo-2-(4-piperidylmethylamino)ethyl] benzamide formate] reads 0.261 µM; that for `Cc1cc(Nc2nccn3c(-c4cn(CC(F)F)nc4C(F)(F)F)cnc23)cc(F)c1C(=O)N1CCN(C(=O)C2CCNCC2)CC1` [Example 707, (4-(4-((3-(1-(2,2-difluoroethyl)-3-(trifluoromethyl)-1H-pyrazol-4-yl)imidazo[1,2-a]pyrazin-8-yl)amino)-2-fluoro-6-methylbenzoyl)piperazin-1-yl)(piperidin-4-yl) methanone], 0.395 µM; that for `CCc1cc(Nc2nccn3c(-c4c[nH]nc4C(F)(F)F)cnc23)ccc1C(=O)NCCCNC(=O)N1CC[C@@H](N)C1` [Example 631, (R)-3-amino-N-(3-(2-ethyl-4-((3-(3-(trifluoromethyl)-1H-pyrazol-4-yl)imidazo[1,2-a]pyrazin-8-yl)amino)benzamido)propyl) pyrrolidine-1-carboxamide], 0.209 µM.
